{"source": "the NIST ThermoML archive (doi:10.1021/acs.jced.6b00856)", "assay": "mn = molality of the nth substance listed, in mol/kg", "settings": "101.3 kPa, Liquid; for viscosity: Capillary tube (Ostwald / Ubbelohde) method; for mass density: Pycnometric method", "note": "Numbers after ± are expanded uncertainties.", "data": [{"smiles": "C1CNCCN1", "note": "[piperazine] + O", "values": [{"measurement": "viscosity", "setting": "303.15 K, m1 = 0.66", "result": "0.987 ± 0.04", "unit": "mPa·s"}, {"measurement": "viscosity", "setting": "303.15 K, m1 = 1.1", "result": "1.169 ± 0.04", "unit": "mPa·s"}, {"measurement": "viscosity", "setting": "303.15 K, m1 = 1.7", "result": "1.456 ± 0.04", "unit": "mPa·s"}, {"measurement": "mass density", "setting": "303.15 K, m1 = 0.66", "result": "997.55 ± 0.27", "unit": "kg/m3"}, {"measurement": "mass density", "setting": "303.15 K, m1 = 1.1", "result": "999.58 ± 0.27", "unit": "kg/m3"}, {"measurement": "mass density", "setting": "303.15 K, m1 = 1.7", "result": "1002.4 ± 0.3", "unit": "kg/m3"}, {"measurement": "viscosity", "setting": "313.15 K, m1 = 0.66", "result": "0.789 ± 0.039", "unit": "mPa·s"}, {"measurement": "viscosity", "setting": "313.15 K, m1 = 1.1", "result": "0.916 ± 0.04", "unit": "mPa·s"}, {"measurement": "viscosity", "setting": "313.15 K, m1 = 1.7", "result": "1.124 ± 0.04", "unit": "mPa·s"}, {"measurement": "mass density", "setting": "313.15 K, m1 = 0.66", "result": "994.45 ± 0.29", "unit": "kg/m3"}, {"measurement": "mass density", "setting": "313.15 K, m1 = 1.1", "result": "995.73 ± 0.29", "unit": "kg/m3"}, {"measurement": "mass density", "setting": "313.15 K, m1 = 1.7", "result": "998.08 ± 0.3", "unit": "kg/m3"}, {"measurement": "viscosity", "setting": "323.15 K, m1 = 0.66", "result": "0.641 ± 0.039", "unit": "mPa·s"}, {"measurement": "viscosity", "setting": "323.15 K, m1 = 1.1", "result": "0.747 ± 0.039", "unit": "mPa·s"}, {"measurement": "viscosity", "setting": "323.15 K, m1 = 1.7", "result": "0.893 ± 0.039", "unit": "mPa·s"}, {"measurement": "mass density", "setting": "323.15 K, m1 = 0.66", "result": "989.89 ± 0.31", "unit": "kg/m3"}, {"measurement": "mass density", "setting": "323.15 K, m1 = 1.1", "result": "991.34 ± 0.31", "unit": "kg/m3"}, {"measurement": "mass density", "setting": "323.15 K, m1 = 1.7", "result": "993.64 ± 0.32", "unit": "kg/m3"}]}]}
